Assay results reported in PMC9823088, “The oral selective estrogen receptor degrader GDC-0810 (ARN-810) in postmenopausal women with hormone receptor-positive HER2-negative (HR + /HER2 −) advanced/metastatic breast cancer” (Breast Cancer Research and Treatment, 2022).

Assays:
[1] = Plasma pharmacokinetics of GDC-0810 and glucuronide metabolites; assay type: in vivo, human; conditions: steady state, 600-mg QD, non-fasted condition
Description: Blood samples were collected for pharmacokinetic assessments. Tumor assessments were performed at screening and every 8 weeks from cycle 1, day 1 (C1D1). Radiographic assessment of objective tumor response or disease progression was based on Response Evaluation Criteria in Solid Tumors (RECIST v1.1). Transvaginal ultrasound scans were performed to monitor endometrial thickness at screening, at every 6 months from C1D1, and at the end of treatment. Imaging with [^18F]-fluoroestradiol positron emission tomography (FES-PET) was performed to quantify ER expression in tumors and to assess for pharmacodynamic response. Further assessment details are provided in Supplementary Methods.
CYP2B6 and CYP2C enzymes. […]
Blood samples were collected for pharmacokinetic assessment on lead-in day −7 and cycle 2 day 1 (C2D1) at predose (0 hour) and postdose (0.5, 1, 1.5, 2, 3, 4, 6, 8, and 24 hours), (plus at 48 hours postdose for day−7). Full plasma pharmacokinetic profiles were obtained for GDC-0810 and its glucuronide metabolites (acyl-glucuronide and N-glucuronide) using a validated liquid chromatography/ tandem mass spectrometry method, and analyzed using non-compartmental methods for all patients in the dose escalation cohorts.
Tumor assessments were performed at screening and every 8 weeks from cycle-1, day-1 […]

[2] = test system: MBC; set-up: method as in PMID 34906954; conditions: cited from earlier work
[3] = set-up: method as in PMID 32919527; conditions: cited from earlier work
[4] = test system: ER; set-up: method as in PMID 25380844; conditions: patients receiving fulvestrant; cited from earlier work

## CC/C(=C(/c1ccc(/C=C/C(=O)O[C@@H]2O[C@H](C(=O)O)[C@@H](O)[C@H](O)[C@H]2O)cc1)c1ccc2[nH]ncc2c1)c1ccc(F)cc1Cl [GDC-0810-acyl-glucuronide]
[1]
  average plasma exposure of metabolite relative to parent GDC-0810: ~10%

## CCNCCc1ccc(CN(CC)c2cc(OC)ccc2[C@@H]2CCc3cc(O)ccc3C2)cc1 [elacestrant]
[2]; patients with MBC who received endocrine + CDK4/6 previously
  PFS: 2.8 months
[2]; patients with tumors harboring ESR1 mutations
  median PFS: 3.8 months

## C[C@]12CC[C@@H]3c4ccc(O)cc4C[C@@H](CCCCCCCCC[S+]([O-])CCCC(F)(F)C(F)(F)F)[C@H]3[C@@H]1CC[C@@H]2O (some centres unmarked) [fulvestrant]
[3]
  solubility: poor solubility
[4]
  patients with residual ER activity by FES-PET: 38%
